Laboratory results from publication PMC9782603 (Viruses, 2022).
Where two headings read alike, the source gives them in different places.

Tests used:
[1] = test system: HCV GT 1b subgenomic reporter replicon (strain Con1); experiment: HCV GT 1b subgenomic replicon luciferase antiviral assay in Huh5-2 cells; assay type: cell-based; details: Hepatitis C virus, GT1B, Huh-5-2, 72 h, read-out: EC50 HCV Replicon 1b
[2] = test system: HCV GT 3a (strain S52) replicon; experiment: HCV GT 3a subgenomic replicon luciferase antiviral assay in Huh7.5-3a cells; assay type: cell-based; details: Hepatitis C virus, GT3A, 72 h, read-out: EC50 HCV Replicon 3a
[3] = test system: HCV GT 4a (strain ED43) replicon; experiment: HCV GT 4a subgenomic replicon luciferase antiviral assay in Huh7.5-4a cells; assay type: cell-based; details: Hepatitis C virus, GT4A, 72 h, read-out: EC50 HCV Replicon 4a
[4] = alamarBlue reduction cytotoxicity assay in replicon cells; assay type: cell-based; details: human, HCV Replicon 1b cells
[5] = Huh5-2, GT 1b (Con1), F-Luc, 3 days
[6] = Huh7.5-3a, GT 3a (S52), F-Luc, 3 days
[7] = Huh7.5-4a, GT 4a (ED43), F-Luc, 3 days

Row | Structure (SMILES) | EC50 [1, 5] | EC50 [2, 6] | EC50 [3, 7] | CC50 at 3 days [4] | melting point | EC50 [1] | EC50 [2] | EC50 [3]
1 | O=C(O)c1cc([N+](=O)[O-])ccc1Nc1ccccc1 [1a, 5-nitro-2-(phenylamino)-benzoic acid] | > 10 µM | > 10 µM | > 10 µM | > 200 µM | – | – | – | –
2 | Cc1cccc(Nc2ccc([N+](=O)[O-])cc2C(=O)O)c1 [1b, 5-nitro-2-(m-tolylamino)benzoic acid] | > 10 µM | > 10 µM | > 10 µM | > 200 µM | – | – | – | –
3 | NC(=O)c1cc([N+](=O)[O-])ccc1Nc1ccccc1 [3a, 5-nitro-2-(phenylamino)benzamide] | > 10 µM | > 10 µM | > 10 µM | 70.69 ± 0.04 µM | – | – | – | –
4 | Cc1cccc(Nc2ccc([N+](=O)[O-])cc2C(N)=O)c1 [3b, 5-Nitro-2-(m-tolylamino) benzamide] | > 10 µM | > 10 µM | > 10 µM | 161.3 ± 0.07 µM | 188 to 190 °C | – | – | –
5 | O=c1ncn(-c2ccccc2)c2ccc([N+](=O)[O-])cc12 [4a, 6-Nitro-1-phenylquinazolin-4(1H)-one] | > 10 µM | > 10 µM | > 10 µM | > 200 µM | 246 to 248 °C | – | – | –
6 | Cc1cccc(-n2cnc(=O)c3cc([N+](=O)[O-])ccc32)c1 [4b, 6-Nitro-1-(m-tolyl)quinazolin-4(1H)-one] | > 10 µM | > 10 µM | > 10 µM | 64.9 ± 0.03 µM | 185 °C | – | – | –
7 | Nc1ccc2c(c1)c(=O)ncn2-c1ccccc1 [5a, 6-Amino-1-phenylquinazolin-4(1H)-one] | 9.84 ± 0.57 µM | > 10 µM | > 10 µM | > 200 µM | 293 to 295 °C | – | – | –
8 | Cc1cccc(-n2cnc(=O)c3cc(N)ccc32)c1 [5b, 6-Amino-1-(m-tolyl)quinazolin-4(1H)-one] | > 10 µM | > 10 µM | > 10 µM | > 200 µM | 288 to 290 °C | – | – | –
9 | O=C(CCl)Nc1ccc2c(c1)c(=O)ncn2-c1ccccc1 [6a, 2-Chloro-N-(4-oxo-1-phenyl-1,4-dihydroquinazolin-6-yl)acetamide] | > 10 µM | > 10 µM | > 10 µM | 104.2 ± 0.03 µM | < 300 °C | – | – | –
10 | Cc1cccc(-n2cnc(=O)c3cc(NC(=O)CCl)ccc32)c1 [6b, 2-Chloro-N-(4-oxo-1-(m-tolyl)-1,4-dihydroquinazolin-6-yl)acetamide] | > 10 µM | > 10 µM | > 10 µM | 143 ± 14.2 µM | 290 °C | – | – | –
11 | Cc1ccc(OCC(=O)Nc2ccc3c(c2)c(=O)ncn3-c2ccccc2)cc1 [7a, N-(4-Oxo-1-phenyl-1,4-dihydroquinazolin-6-yl)-2-(p-tolyloxy)acetamide] | > 10 µM | > 10 µM | > 10 µM | 84.7 ± 14 µM | 220 °C | – | – | –
12 | O=C(COc1ccc(Cl)cc1)Nc1ccc2c(c1)c(=O)ncn2-c1ccccc1 [7b, 2-(4-Chlorophenoxy)-N-(4-oxo-1-phenyl-1,4-dihydroquinazolin-6-yl)acetamide] | > 10 µM | > 10 µM | > 10 µM | 154 ± 3.71 µM | 262 °C | – | – | –
13 | Cc1cc(OCC(=O)Nc2ccc3c(c2)c(=O)ncn3-c2ccccc2)ccc1Cl [7c, 2-(4-Chloro-3-methylphenoxy)-N-(4-oxo-1-phenyl-1,4-dihydroquinazolin-6-yl)acetamide] | > 10 µM | > 10 µM | > 10 µM | 75.2 ± 9.24 µM | 255 °C | – | – | –
14 | Cc1ccc(OCC(=O)Nc2ccc3c(c2)c(=O)ncn3-c2cccc(C)c2)cc1 [7d, N-(4-oxo-1-(m-tolyl)-1,4-dihydroquinazolin-6-yl)-2-(p-tolyloxy)acetamide] | > 10 µM | > 10 µM | > 10 µM | 50.1 ± 1.77 µM | 206 °C | – | – | –
15 | Cc1cccc(-n2cnc(=O)c3cc(NC(=O)COc4ccc(Cl)cc4)ccc32)c1 [7e, 2-(4-Chlorophenoxy)-N-(4-oxo-1-(m-tolyl)-1,4-dihydroquinazolin-6-yl)acetamide] | > 10 µM | > 10 µM | > 10 µM | 47.6 ± 5.56 µM | 255 °C | – | – | –
16 | Cc1cccc(-n2cnc(=O)c3cc(NC(=O)COc4ccc(Cl)c(C)c4)ccc32)c1 [7f, 2-(4-Chloro-3-methylphenoxy)-N-(4-oxo-1-(m-tolyl)-1,4-dihydroquinazolin-6-yl)acetamide] | > 10 µM | > 10 µM | > 10 µM | 105 ± 10.3 µM | 269 °C | – | – | –
17 | Cc1nc(=O)c2cc([N+](=O)[O-])ccc2n1-c1ccccc1 [8a, 2-Methyl-6-nitro-1-phenylquinazolin-4(1H)-one] | – | > 10 µM | > 10 µM | > 200 µM | 260 to 262 °C | > 10 µM | – | –
18 | Cc1cccc(-n2c(C)nc(=O)c3cc([N+](=O)[O-])ccc32)c1 [8b, 2-Methyl-6-nitro-1-(m-tolyl)quinazolin-4(1H)-one] | – | > 10 µM | > 10 µM | 151 ± 5.41 µM | 258 to 260 °C | > 10 µM | – | –
19 | Cc1nc(=O)c2cc(N)ccc2n1-c1ccccc1 [9a, 6-Amino-2-methyl-1-phenylquinazolin-4(1H)-one] | – | > 10 µM | > 10 µM | > 200 µM | 268 to 270 °C | > 10 µM | – | –
20 | Cc1cccc(-n2c(C)nc(=O)c3cc(N)ccc32)c1 [9b, 6-Amino-2-methyl-1-(m-tolyl)quinazolin-4(1H)-one] | > 10 µM | > 10 µM | > 10 µM | > 200 µM | 270 to 273 °C | – | – | –
21 | Cc1nc(=O)c2cc(NC(=O)CCl)ccc2n1-c1ccccc1 [10a, 2-Chloro-N-(2-methyl-4-oxo-1-phenyl-1,4-dihydroquinazolin-6-yl)acetamide] | > 10 µM | > 10 µM | > 10 µM | 87.47 ± 0.24 µM | 285 °C | – | – | –
22 | Cc1cccc(-n2c(C)nc(=O)c3cc(NC(=O)CCl)ccc32)c1 [10b, 2-Chloro-N-(2-methyl-4-oxo-1-(m-tolyl)-1,4-dihydroquinazolin-6-yl)acetamide] | > 10 µM | > 10 µM | > 10 µM | 177.2 ± 0.03 µM | 280 °C | – | – | –
23 | Cc1cc(OCC(=O)Nc2ccc3c(c2)c(=O)nc(C)n3-c2ccccc2)ccc1Cl [11c, 2-(4-Chloro-3-methylphenoxy)-N-(2-methyl-4-oxo-1-phenyl-1,4-dihydroquinazolin-6-yl)acetamide] | > 10 µM | > 10 µM | > 10 µM | > 200 µM | 271 °C | – | – | –
24 | Cc1ccc(OCC(=O)Nc2ccc3c(c2)c(=O)nc(C)n3-c2cccc(C)c2)cc1 [11d, N-(2-Methyl-4-oxo-1-(m-tolyl)-1,4-dihydroquinazolin-6-yl)-2-(p-tolyloxy)acetamide] | > 1 µM | > 10 µM | > 10 µM | 22.7 ± 2.23 µM | 270 °C | – | – | –
25 | Cc1cccc(-n2c(C)nc(=O)c3cc(NC(=O)COc4ccc(Cl)c(C)c4)ccc32)c1 [11f, 2-(4-Chloro-3-methylphenoxy)-N-(2-methyl-4-oxo-1-(m-tolyl)-1,4-dihydroquinazolin-6-yl)acetamide] | > 1 µM | > 10 µM | > 10 µM | 27.4 ± 2.71 µM | 290 °C | – | – | –
26 | COC(=O)N[C@H](C(=O)N1CCC[C@H]1c1nc(-c2ccc(-c3ccc(-c4c[nH]c([C@@H]5CCCN5C(=O)[C@@H](NC(=O)OC)C(C)C)n4)cc3)cc2)c[nH]1)C(C)C [Daclatasvir, reference compound] | 2.66e-05 µM | – | – | 17.7 µM | – | – | 2.12e-05 µM | 0.008 ± 0.001 µM
